For test [1], the target named is gingipain-1 (Porphyromonas gingivalis, UniProt P28784). In words: biochemical. It counts as biochemical. The following applies: for Activity +Gly-Gly: 0.1 mM compound, 50 mM Gly-Gly; for activity at 100 µM / activity at 1000 µM / activity at 10000 µM: pH 7.5, read-out: Activity -Gly-Gly; for stimulation of amidolytic activity: thiol / reducing compounds.
Test [2] deals with gingipain-1. In words: biochemical. It is filed as biochemical, Porphyromonas gingivalis. The following applies: Sephadex G-150 peak fractions.
The test system of test [3] is guinea pig skin. It counts as in vivo. To be noted: 10^-5 M.

This note sets out measurements from patent US6274718A (priority 2000, dated 2001).

Where a SMILES comes first, the peptide text is derived from it.

Sequence of gingipain-1 (Porphyromonas gingivalis, UniProt P28784) (P28784 228-719): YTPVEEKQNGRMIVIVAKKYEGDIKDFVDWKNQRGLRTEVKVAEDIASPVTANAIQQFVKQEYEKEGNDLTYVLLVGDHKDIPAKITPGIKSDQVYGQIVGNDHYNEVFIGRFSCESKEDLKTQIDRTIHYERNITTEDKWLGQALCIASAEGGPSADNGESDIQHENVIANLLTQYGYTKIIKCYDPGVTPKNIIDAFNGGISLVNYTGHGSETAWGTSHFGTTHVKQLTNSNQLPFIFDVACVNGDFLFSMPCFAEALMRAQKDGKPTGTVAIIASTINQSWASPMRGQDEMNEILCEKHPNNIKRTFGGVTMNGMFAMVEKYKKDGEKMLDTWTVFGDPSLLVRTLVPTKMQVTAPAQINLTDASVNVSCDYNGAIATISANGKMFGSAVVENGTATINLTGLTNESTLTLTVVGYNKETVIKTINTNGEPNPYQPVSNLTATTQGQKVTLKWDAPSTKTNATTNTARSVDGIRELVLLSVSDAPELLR

As for `N[C@@H](CCC(=O)N[C@@H](CS)C(=O)NCC(=O)O)C(=O)O` [Glutathione], in test [1], the “Activity +Gly-Gly” value is listed as 853%, the activity at 100 µM stood at 208%, the activity at 1000 µM is 593% and the activity at 10000 µM is 770%.

Consider `NCC(=O)NCC(=O)O` [Gly-Gly, glycyl-glycine] (H-Gly-Gly-OH), for which the “enhancement of Bz-L-Arg-pNA hydrolytic activity” value in test [2] was “enhanced many-fold”.

As to `NCCS` [cysteamine], in test [1], the “stimulation of amidolytic activity” value is listed as “most efficient”.

Take `O[C@H](CS)[C@H](O)CS` (racemic) [Dithiothreitol]: in test [1], the “Activity +Gly-Gly” value stood at 636%, the activity at 100 µM is 159%, the activity at 1000 µM was found to be 432% and the activity at 10000 µM came to 685%.

As to `NCC(=O)O` [glycine], the “effect of glycine and glycine analogues on kcat/Km” value in test [1] (preliminary kinetic data, kcat and Km both raised equally) was “kcat /Km ratio does not change”.

With `OCCS` [Mercaptoethanol], in test [1], the “Activity +Gly-Gly” value worked out at 627%, the activity at 100 µM worked out at 165%, the activity at 1000 µM was 456% and the activity at 10000 µM was 685%.

Regarding `NCC(N)=O` [glycine amide], the “enhancement of Bz-L-Arg-pNA hydrolytic activity” value in test [2] is given as “enhanced many-fold”.

Turning to `N[C@@H](CS)C(=O)O` [Cysteine], in test [1], the activity at 100 µM was found to be 685% and the “stimulation of amidolytic activity” value is listed as “most efficient”.

B1: soybean trypsin inhibitor: soybean trypsin inhibitor (SBTI) (protein, UniProt P01070 25-205, looked up)
Trypsin inhibitor A: DFVLDNEGNPLENGGTYYILSDITAFGGIRAAPTGNERCPLTVVQSRNELDKGIGTIISSPYRIRFIAEGHPLSLKFDSFAVIMLCVGIPTEWSVVEDLPEGPAVKIGENKDAMDGWFRLERVSDDEFNNYKLVFCPQQAEDDKCGDIGISIDHDDGTRRLVVSKNKPLVVQFQKLDKESL
Take B1: the “inhibition of vascular permeability enhancement” value in test [3] is listed as “inhibited”.
